From patent US10952992B2, “Methods of treating intraocular pressure with activators of Tie-2” (Aerpio Pharmaceuticals, Inc., priority 2015, dated 2021)
“And” between values parts separate entries of the source, which are not always exact repeats. Equal values may be shown once. Where a name gives a salt, the structure may show the parent alone.

Experiments:
[1] = Example 2 iris, retina, choroid and cornea tissue concentrations; assay type: in vivo, male New Zealand White rabbits; conditions: for Retina Conc. OS / Retina Conc. OD: retina homogenate; for Retina Conc. OS / Retina tissue Conc. OS: left eye; for Retina Conc. OS / Retina Conc. OD / Retina tissue Conc. OS / Retina tissue Conc. OD: individual animals; for Retina Conc. OS / Retina Conc. OD / Retina tissue Conc. Avg. / Retina tissue Conc. OS / Retina tissue Conc. OD: intravitreal 2.5 mg/eye (~1.55 mg/kg), Group 4; for Retina Conc. OD / Retina tissue Conc. OD: right eye; for Retina tissue Conc. Avg.: average
Protocol: (§1) To measure the concentration of Compound 1 in plasma and ocular tissues following topical ocular, subcutaneous, and intravitreal administration, New Zealand White rabbits were administered Compound 1, and plasma and ocular samples were collected at pre-determined time points. Compound 1 formulations were prepared fresh on each day of dosing.
(§2) Ocular tissue samples from both eyes of each animal were collected and weights were recorded. Plasma and ocular tissue sample concentrations of Compound 1 were determined by LC-MS/MS.
(§3) Animals were anesthetized for ocular (topical) and intravitreal dosing following the 12IA7 IACUC protocol. Each rabbit received a bolus dose of test formulation either via topical ocular administration 3 times daily on Days 1 and 2 (at 0, 6, and 12 hours), and once on Day 3 (at 0 hours) into both eyes; via intravitreal administration into both eyes once on Day 1 (at 0 hours); or via subcutaneous administration 2 times daily on Days 1 and 2 (at 0 and 8 hours) and once daily on Day 3 (at 0 hours). Doses were given within an approximately 1 hour window each day where applicable.
(§4) On Day 1, for intravitreal administration, or on Day 3, for topical ocular and subcutaneous administration, at the appropriate ocular tissue collection time points, animals were euthanized and both eyes were enucleated immediately. Following enucleation, each eye was rinsed with phosphate-buffered saline. Ocular tissue samples from both eyes of each animal were collected at predetermined time points and weights were recorded. All the samples were frozen immediately on dry ice, and stored at −60° C. to −80° C. pending bioanalysis.
(§5) An LC-MS/MS method was developed for the determination of Compound 1 in rabbit aqueous tissues (plasma, aqueous and vitreous humor) and solid ocular tissue samples. A pre-study standard curve was analyzed to determine the specificity, range, and lower limit of quantitation of the method. Plasma and tissue homogenate study samples were extracted and analyzed. All the samples were treated identically to the standards.
(§6) One eight-point standard curve was used in each analytical batch. To be accepted, each batch must have had at least five of eight standards with accuracy within ±20% of nominal, except at the lower limit of quantification (LLOQ), where ±25% was acceptable.

[2] = Example 2 aqueous humor concentrations; assay type: in vivo, male New Zealand White rabbits; conditions: for Average Peak Concentration, Aqueous Humor: solution
Protocol: as §1, §2, §3, §4, §5, §6

[3] = Group 1 (topical ocular 1.2 mg/eye), 0.5 hr
[4] = Group 1 (topical ocular 1.2 mg/eye), 1.0 hr
[5] = Group 1 (topical ocular 1.2 mg/eye), 2.0 hr
[6] = Group 1 (topical ocular 1.2 mg/eye), 4.0 hr
[7] = Group 2 (subcutaneous 5 mg/kg/dose, solution), 0.5 hr
[8] = Group 2 (subcutaneous 5 mg/kg/dose, solution), 1.0 hr
[9] = Group 2 (subcutaneous 5 mg/kg/dose, solution), 2.0 hr
[10] = Group 2 (subcutaneous 5 mg/kg/dose, solution), 4.0 hr, BLOQ = below 0.2 ng/mL
[11] = Group 4 (intravitreal 2.5 mg/eye, solution), 6.0 hr
[12] = Group 4 (intravitreal 2.5 mg/eye, solution), 24 hr
[13] = Group 4 (intravitreal 2.5 mg/eye, solution), 48 hr

## COC(=O)N[C@@H](Cc1ccccc1)C(=O)N[C@@H](Cc1ccc(NS(=O)(=O)O)cc1)c1csc(-c2cccs2)n1 [Compound 1 sodium salt]
[1]; 6.0 hr
  Retina Conc. OS: 41100 ng/mL and 82300 ng/mL
  Retina Conc. OD: 39200 ng/mL and 119000 ng/mL
  Retina tissue Conc. Avg.: 774400 ng/g
  Retina tissue Conc. OS: 452100 ng/g and 905300 ng/g
  Retina tissue Conc. OD: 431200 ng/g and 1309000 ng/g
[1]; 24 hr
  Retina Conc. OS: 28000 ng/mL and 3700 ng/mL
  Retina Conc. OD: 29200 ng/mL and 35200 ng/mL
  Retina tissue Conc. Avg.: 355850 ng/g
  Retina tissue Conc. OS: 308000 ng/g and 407000 ng/g
  Retina tissue Conc. OD: 321200 ng/g and 387200 ng/g
[1]; 48 hr
  Retina Conc. OS: 6030 ng/mL and 6530 ng/mL
  Retina Conc. OD: 6490 ng/mL and 7360 ng/mL
  Retina tissue Conc. Avg.: 72628 ng/g
  Retina tissue Conc. OS: 66330 ng/g and 71830 ng/g
  Retina tissue Conc. OD: 71390 ng/g and 80960 ng/g
[1]; 72 hr
  Retina Conc. OS: 370 ng/mL and 484 ng/mL
  Retina Conc. OD: 750 ng/mL and 598 ng/mL
  Retina tissue Conc. Avg.: 6056 ng/g
  Retina tissue Conc. OS: 4070 ng/g and 5324 ng/g
  Retina tissue Conc. OD: 8250 ng/g and 6578 ng/g
[1]; subcutaneous 5 mg/kg/dose, sodium salt
  distribution among iris, retina, choroid, cornea (FIG. 13): generally higher in the iris and choroid
[1]; subcutaneous and intravitreal administration
  ocular tissue concentrations, sodium salt solution compared to free acid suspension: generally higher
[1]; topical ocular administration at 0.7 mg/kg/dose
  distribution among iris, retina, choroid, cornea (FIG. 12): generally higher in the cornea
[2]; [3]
  aqueous humor Average Conc.: 45.8 ng/g
  aqueous humor Conc. OS: 1.78 ng/mL
[2]; [4]
  aqueous humor Average Conc.: 15.0 ng/g
  aqueous humor Conc. OD: 4.03 ng/mL and 3.05 ng/mL
  aqueous humor Conc. OS: 3.55 ng/mL
[2]; [5]
  aqueous humor Average Conc.: 31.6 ng/g
  aqueous humor Conc. OD: 2.46 ng/mL
  aqueous humor Conc. OS: 14.5 ng/mL and 15.8 ng/mL
[2]; [6]
  aqueous humor Average Conc.: 8.24 ng/g
  aqueous humor Conc. OD: 5.48 ng/mL and 7.78 ng/mL
[2]; Group 1: topical ocular 0.70 mg/kg/dose
  Average Peak Concentration, Aqueous Humor: 45.8 ng/g
[2]; [7]
  aqueous humor Average Conc.: 26.1 ng/g
  aqueous humor Conc. OD: 23.5 ng/mL and 18.0 ng/mL
  aqueous humor Conc. OS: 24.6 ng/mL and 38.2 ng/mL
[2]; [8]
  aqueous humor Average Conc.: 3.30 ng/g
  aqueous humor Conc. OD: 4.51 ng/mL and 3.22 ng/mL
  aqueous humor Conc. OS: 1.84 ng/mL and 3.63 ng/mL
[2]; [9]
  aqueous humor Average Conc.: 0.72 ng/g
  aqueous humor Conc. OD: 0.581 ng/mL and 0.453 ng/mL
  aqueous humor Conc. OS: 0.498 ng/mL
[2]; [10]
  aqueous humor Conc. OD: BLOQ
  aqueous humor Conc. OS: BLOQ
[2]; Group 2: subcutaneous 5 mg/kg/dose
  Average Peak Concentration, Aqueous Humor: 26.1 ng/g
[2]; [11]
  aqueous humor Average Conc.: 80575 ng/g
  aqueous humor Conc. OD: 90600 ng/mL and 75300 ng/mL
  aqueous humor Conc. OS: 77100 ng/mL and 79300 ng/mL
[2]; [12]
  aqueous humor Average Conc.: 9000 ng/g
  aqueous humor Conc. OD: 4700 ng/mL
  aqueous humor Conc. OS: 5190 ng/mL and 6810 ng/mL
[2]; [13]
  aqueous humor Average Conc.: 1963 ng/g
  aqueous humor Conc. OD: 2040 ng/mL and 2330 ng/mL
  aqueous humor Conc. OS: 1510 ng/mL and 1970 ng/mL
[2]; Group 4 (intravitreal 2.5 mg/eye, solution), 72 hr
  aqueous humor Average Conc.: 34.5 ng/g
[2]; Group 4: intravitreal 1.55 mg/kg/dose
  Average Peak Concentration, Aqueous Humor: 80575 ng/g
[2]; intravitreal administration, up to forty-eight hours post-administration
  aqueous humor concentrations vs free acid (FIG. 8): higher aqueous humor concentrations
[2]; subcutaneous administration, early time points
  aqueous humor concentrations vs free acid (FIG. 7): increased aqueous humor concentrations as compared to the free acid
[2]; topical ocular administration, over four hours
  aqueous humor concentrations (FIG. 6): below 50 ng/g
